Twelve compounds from patent US11298363B2, “Triazolobenzazepines as vasopressin V1a receptor antagonists” (RICHTER GEDEON NYRT., priority 2017, dated 2022) can be followed below.

Test [1] has as its target T1, human vasopressin V1a receptor (Homo sapiens, UniProt P37288). Nature of the test: Functional assay on human vasopressin V1a receptor expressing cell line (intracellular Ca2+ fluorescence). The test is classed as cell-based. To be noted: for IC50: 1321N1 cells, (Arg8)-vasopressin at EC80, read-out: IC50 (nM) on hV1a cell line. As for the experimental part: Functional Assay to Test Compounds on Human Vasopressin V1a Receptor Expressing Cell Line
The ordinary secondary messenger pathway of the measured GPCR receptor was used, the endogenous Gq-associated system.
Using 30,000 cells/plate, compounds were measured on 96-well plates. The buffer composition of the measurements was the following (expressed in mM): 140 NaCl, 5 KCl, 2 CaCl2), 2 MgCl2, 10 glucose, 10 HEPES (4-(2-hydroxyethyl)-1-piperazine-ethanesulfonic acid), 2 probenecid, pH=7.4. FLIPR Calcium 5 kit (Molecular Devices) was used as fluorescent dye, the medium was not removed prior to filling with the dye and the cells were not washed out either before or after. The incubation was performed at room temperature, the final concentration of DMSO was 1%. The materials to be measured were administered in 15 to 20 minutes pretreatment, at least two parallels of each compound in each concentration was measured.
Fluorescence signal was used to determine the intracellular Ca^2+ level, the reader was FlexStation II96. […] The fluorescence signal was logged in every 1.4 seconds for 1 minute. The reference compounds used were the following: (Arg^8)-vasopressin as agonist at concentration of EC80, determined for each plate, and relcovaptan as antagonist at 1 μM. The % of inhibition at each concentration and the IC50 value of the compounds were determined where a concentration line was also measured.
The total AVP concentration-response curve was recorded on each plate. The effect of compounds measured was expressed by percentage of relative inhibition compared to control response. […] The average IC50 values were calculated from at least three independent measurements in all cases.

Test [2] addresses T1, human vasopressin V1a receptor. Nature of the test: Human vasopressin V1a receptor binding assay. To be noted: for Ki: 1321N1 cell membranes, [3H]vasopressin, read-out: Ki (nM) on hV1a cell line. As for the experimental part:
Human Vasopressin V1a Receptor Binding Assay
Cells were suspended in preparative buffer (50 mM Tris, 1 mM EDTA, 0.1 mM PMSF) and homogenized with glass homogenizing potter. To separate the raw membrane fraction two consecutive centrifugation procedures (40,000 g for 20 minutes at 4° C.) were executed, then the membrane was taken into the preparatory buffer during a final washing step, it was divided into aliquots which were stored at −80° C. until the time of measurement.
To determine the final affinity value, the results of at least two independent experiments were taken into account.
Non-specific binding values were determined in the presence of unlabeled 1.2×10^−6 M (Arg^8)-vasopressin. Samples were incubated in a total volume of 0.33 ml for 60 minutes at 27° C. Membrane-bound and free ligands were separated by filtration through a 0.5% polyethyleneimine-impregnated UniFilter® GF/B™. After drying the filter plates, 40 μl Microscint-20 (Packard) scintillation cocktail was added to the samples. Finally, radioactivity was measured using MicroBeta^2 Microplate Counter (Perkin Elmer).
During fitting, the asymptotes are not fixed. The K values (inhibition constant) are given with Cheng-Prusoff equation Ki=IC50/[1+(L/KD)] wherein [L] is the radioligand concentration used in the experiment and [KD] is the affinity of the radioactively labelled ligand for the given receptor. The KD is determined beforehand using the Scatchard curve.

Molecules are shown by their SMILES.

T1 sequence (P37288 whole entry): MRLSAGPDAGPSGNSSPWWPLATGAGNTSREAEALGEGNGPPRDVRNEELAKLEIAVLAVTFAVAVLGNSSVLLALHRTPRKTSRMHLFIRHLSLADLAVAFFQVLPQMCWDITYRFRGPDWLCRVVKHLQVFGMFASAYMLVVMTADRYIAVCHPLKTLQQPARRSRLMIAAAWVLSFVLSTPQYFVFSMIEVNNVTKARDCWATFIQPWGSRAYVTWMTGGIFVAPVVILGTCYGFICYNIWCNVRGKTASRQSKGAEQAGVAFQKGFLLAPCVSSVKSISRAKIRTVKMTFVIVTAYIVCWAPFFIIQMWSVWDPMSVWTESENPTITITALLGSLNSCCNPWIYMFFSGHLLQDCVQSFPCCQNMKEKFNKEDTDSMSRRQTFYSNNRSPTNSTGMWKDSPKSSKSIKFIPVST

By IC50 is commonly meant the concentration that gives 50% inhibition. A word on the Ki: it is a dissociation constant, usually derived from enzyme kinetics or from competition with a known ligand. As for `OC1Cc2cc(Br)ccc2-n2c(nnc2[C@H]2CC[C@H](C(F)(F)F)CC2)C1` (stereo partly shown) [Example 93], the IC50 in test [1] amounted to 16 nM. In addition, in test [2], the inhibitory constant (Ki) was found to be 3.2 nM.

With `OC1Cc2cc(C(F)(F)F)ccc2-n2c(nnc2[C@H]2CC[C@H](Oc3ccccn3)CC2)C1` (stereo partly drawn) [Example 49, 1-[trans-4-(pyridin-2-yloxy)cyclohexyl]-8-(trifluoromethyl)-5,6-dihydro-4H-[1,2,4]triazolo[4,3-a][1]benzazepin-5-ol], the 50% inhibitory concentration (IC50) in test [1] was determined as 140 nM. Moreover, the inhibition constant Ki in test [2] amounted to 7.5 nM.

`CCO[C@]1(C)CC[C@@H](c2nnc3n2-c2ccc(Cl)cc2CC2(C3)OCCO2)CC1` [Example 237, 8′-chloro-1′-(trans-4-ethoxy-4-methylcyclohexyl)-4′H,6′H-spiro[1,3-dioxolane-2,5-[1,2,4]triazolo[4,3-a][1]benzazepine]]: in test [1], the half-maximal inhibitory concentration (IC50) is 1.5 nM. For the same compound, in test [2], the inhibition constant (Ki) came to 0.2 nM.

On to `CN(Cc1ccc(F)cc1)[C@H]1Cc2cc(Cl)ccc2-n2c(nnc2[C@H]2CC[C@H](Oc3ccccn3)CC2)C1` [Example 97, (5S)-8-chloro-N-(4-fluorobenzyl)-N-methyl-1-[trans-4-(pyridin-2-yloxy)cyclohexyl]-5,6-dihydro-4H-[1,2,4]triazolo[4,3-a][1]benzazepin-5-amine], for which the inhibition at 1 µM in test [1] (read-out: % at 1 μM, printed in the column IC50 (nM) on hV1a cell line) was 34%. Moreover, in test [2], the inhibition constant Ki worked out at 122 nM.

Regarding `FC1Cc2cc(Cl)ccc2-n2c(nnc2[C@H]2CC[C@H](Oc3ccccn3)CC2)C1` (stereo partly drawn) [Example 206, 8-chloro-5-fluoro-1-[trans-4-(pyridin-2-yloxy)cyclohexyl]-5,6-dihydro-4H-[1,2,4]triazolo[4,3-a][1]benzazepine], the half-inhibitory concentration (IC50) in test [1] worked out at 0.9 nM. Also, in test [2], the Ki came out at 0.2 nM.

Consider `O=C(N[C@@H]1Cc2cc(Cl)ccc2-n2c(nnc2[C@H]2CC[C@H](Oc3ccccn3)CC2)C1)C1CCOCC1` [Example 180, N-{(5R)-8-chloro-1-[trans-4-(pyridin-2-yloxy)cyclohexyl]-5,6-dihydro-4H-[1,2,4]triazolo[4,3-a][1]benzazepin-5-yl}tetrahydro-2H-pyran-4-carboxamide], for which the IC50 in test [1] was determined as 4.1 nM. Also, in test [2], the inhibitory constant (Ki) came out at 1.1 nM.

Turning to `CC(C)NC1Cc2cc(Cl)ccc2-n2c(nnc2C2CCC(F)(F)CC2)C1` (stereo not shown) [Example 42, 8-chloro-1-(4,4-difluorocyclohexyl)-N-(propan-2-yl)-5,6-dihydro-4H-[1,2,4]triazolo[4,3-a][1]benzazepine-5-amine], in test [2] (at 1 μM), the “% at 1 μM, printed in the column Ki (nM) on hV1a cell line” value turned out to be 42% at 1 μM.

With `CC(C)N(C)C1Cc2cc(Cl)ccc2-n2c(nnc2[C@H]2CC[C@H](Oc3ccccn3)CC2)C1` (stereo partly drawn) [Example 138, 8-chloro-N-methyl-N-(propan-2-yl)-1-[trans-4-(pyridin-2-yloxy)cyclohexyl]-5,6-dihydro-4H-[1,2,4]triazolo[4,3-a][1]benzazepin-5-amine], the IC50 in test [1] came out at 5 nM. Further, the Ki in test [2] turned out to be 0.2 nM.

`CC(C)NC1Cc2cc(Cl)ccc2-n2c(nnc2[C@H]2CC[C@H](N3CCOCC3)CC2)C1` (stereo partly shown) [Example 114]: the IC50 in test [1] amounted to 205 nM. For the same compound, the inhibition constant Ki in test [2] was found to be 26.5 nM.

For the compound `Clc1ccc2c(c1)CC1(Cc3nnc([C@H]4CC[C@H](CN5CCCCC5)CC4)n3-2)OCCO1` [Example 69, 8′-chloro-1′-[trans-4-(piperidin-1-ylmethyl)cyclohexyl]-4′H,6′H-spiro[1,3-dioxolane-2,5′-[1,2,4]triazolo[4,3-a][1]benzazepine]], in test [1], the IC50 is 139 nM. Further, in test [2], the inhibitory constant (Ki) was 10 nM.

Turning to `NC1Cc2cc(Cl)ccc2-n2c(nnc2[C@H]2CC[C@H](C(F)(F)F)CC2)C1` (stereo partly shown) [Example 43], in test [1], the concentration for half-maximal inhibition (IC50) was 210 nM. Further, in test [2], the inhibition constant Ki worked out at 88 nM.

Take `CC(C)NC1Cc2cc(Cl)ccc2-n2c(nnc2C2CC(F)(F)C2)C1` (stereo not shown) [Example 41, 8-chloro-1-(3,3-difluorocyclobutyl)-N-(propan-2-yl)-5,6-dihydro-4H-[1,2,4]triazolo[4,3-a][1]benzazepine-5-amine]: the Ki in test [2] is 600 nM.
